Test results reported in the supplement of paper PMC13386468.

How the values were obtained:
Assay in all cases: IC50 for competition of protein binding to Kinobeads
Conditions in all cases: assay detail: Kinobeads competition in P. falciparum blood-stage lysate
UniProt C0H516 = biological target: UniProt C0H516
UniProt Q8ID42 = biological target: UniProt Q8ID42
UniProt Q8IHR6 = biological target: UniProt Q8IHR6
UniProt Q8IM38 = biological target: UniProt Q8IM38
UniProt Q8IIM5 = biological target: UniProt Q8IIM5
UniProt O97231 = biological target: UniProt O97231
UniProt O97231, sequence (O97231 whole entry): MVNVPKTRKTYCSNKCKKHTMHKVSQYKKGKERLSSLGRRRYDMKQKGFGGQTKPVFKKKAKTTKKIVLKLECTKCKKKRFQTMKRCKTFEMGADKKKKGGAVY

UniProt Q8IL71 = biological target: UniProt Q8IL71
UniProt Q8IJP8 = biological target: UniProt Q8IJP8
UniProt C6KT18 = biological target: UniProt C6KT18
UniProt Q8I1R5 = biological target: UniProt Q8I1R5
UniProt Q8IJR8 = biological target: UniProt Q8IJR8
UniProt Q8I5A6 = biological target: UniProt Q8I5A6
UniProt Q8I5D2 = biological target: UniProt Q8I5D2
UniProt Q8I5D2, sequence (Q8I5D2 whole entry): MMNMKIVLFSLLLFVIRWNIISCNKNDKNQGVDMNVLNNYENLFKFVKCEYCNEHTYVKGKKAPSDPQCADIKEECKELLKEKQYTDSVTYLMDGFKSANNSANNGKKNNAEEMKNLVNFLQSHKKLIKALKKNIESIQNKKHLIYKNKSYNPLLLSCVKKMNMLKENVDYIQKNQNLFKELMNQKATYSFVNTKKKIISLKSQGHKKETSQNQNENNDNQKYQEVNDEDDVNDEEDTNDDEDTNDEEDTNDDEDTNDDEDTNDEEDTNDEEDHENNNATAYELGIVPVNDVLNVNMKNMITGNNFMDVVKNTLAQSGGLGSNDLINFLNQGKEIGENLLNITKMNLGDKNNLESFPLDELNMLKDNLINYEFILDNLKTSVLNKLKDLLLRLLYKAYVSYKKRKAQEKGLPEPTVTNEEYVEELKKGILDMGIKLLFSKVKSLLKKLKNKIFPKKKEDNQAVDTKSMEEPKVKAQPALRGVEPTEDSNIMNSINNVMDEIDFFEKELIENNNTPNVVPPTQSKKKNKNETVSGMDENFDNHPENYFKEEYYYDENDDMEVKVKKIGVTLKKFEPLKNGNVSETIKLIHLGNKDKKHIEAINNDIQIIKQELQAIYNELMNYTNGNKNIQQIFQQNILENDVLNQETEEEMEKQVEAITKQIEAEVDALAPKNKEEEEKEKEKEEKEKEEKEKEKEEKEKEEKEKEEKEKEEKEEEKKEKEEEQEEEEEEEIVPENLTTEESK

UniProt Q8IL19 = biological target: UniProt Q8IL19
UniProt Q7K6B0 = biological target: UniProt Q7K6B0
UniProt C0H4Z7 = biological target: UniProt C0H4Z7
UniProt Q8IIC9 = biological target: UniProt Q8IIC9
UniProt Q7KQJ9 = biological target: UniProt Q7KQJ9
UniProt Q7KQJ9, sequence (Q7KQJ9 whole entry): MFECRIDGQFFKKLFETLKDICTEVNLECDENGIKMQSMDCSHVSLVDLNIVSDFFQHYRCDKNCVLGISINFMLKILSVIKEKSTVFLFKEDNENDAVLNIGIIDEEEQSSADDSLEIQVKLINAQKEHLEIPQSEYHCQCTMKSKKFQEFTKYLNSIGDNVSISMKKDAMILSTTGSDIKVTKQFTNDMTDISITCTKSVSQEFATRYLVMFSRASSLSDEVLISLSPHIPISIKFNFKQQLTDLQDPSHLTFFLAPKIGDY

UniProt Q8IM15 = biological target: UniProt Q8IM15
UniProt Q8IM15, sequence (Q8IM15 whole entry): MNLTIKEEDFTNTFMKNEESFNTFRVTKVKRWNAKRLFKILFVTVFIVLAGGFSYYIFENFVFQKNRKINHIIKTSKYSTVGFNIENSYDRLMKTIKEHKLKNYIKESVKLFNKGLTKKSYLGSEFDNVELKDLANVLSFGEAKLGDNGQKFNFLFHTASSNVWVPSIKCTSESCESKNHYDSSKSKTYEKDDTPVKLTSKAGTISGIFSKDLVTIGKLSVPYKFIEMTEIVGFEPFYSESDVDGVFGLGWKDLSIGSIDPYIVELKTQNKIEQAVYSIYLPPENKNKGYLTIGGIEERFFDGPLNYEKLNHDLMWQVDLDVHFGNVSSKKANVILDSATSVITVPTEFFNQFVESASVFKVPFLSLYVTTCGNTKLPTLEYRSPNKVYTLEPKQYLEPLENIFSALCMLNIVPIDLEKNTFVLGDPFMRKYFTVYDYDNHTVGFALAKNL

UniProt Q8IJ60 = biological target: UniProt Q8IJ60
UniProt Q8IKQ7 = biological target: UniProt Q8IKQ7
UniProt Q8ILX1 = biological target: UniProt Q8ILX1
UniProt Q8IL80 = biological target: UniProt Q8IL80
UniProt Q8IJG6 = biological target: UniProt Q8IJG6
UniProt Q8IL58 = biological target: UniProt Q8IL58
UniProt Q8IAR7 = biological target: UniProt Q8IAR7
UniProt Q8IDV0 = biological target: UniProt Q8IDV0
UniProt Q7KQL8 = biological target: UniProt Q7KQL8
UniProt Q7KQL8, sequence (Q7KQL8 whole entry): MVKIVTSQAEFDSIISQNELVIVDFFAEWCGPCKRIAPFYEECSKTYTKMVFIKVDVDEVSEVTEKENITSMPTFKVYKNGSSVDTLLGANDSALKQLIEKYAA

UniProt Q8IJC7 = biological target: UniProt Q8IJC7
UniProt Q8ID28 = biological target: UniProt Q8ID28
UniProt Q8IBA0 = biological target: UniProt Q8IBA0
UniProt Q8I3X4 = biological target: UniProt Q8I3X4
UniProt Q8I3X4, sequence (Q8I3X4 whole entry): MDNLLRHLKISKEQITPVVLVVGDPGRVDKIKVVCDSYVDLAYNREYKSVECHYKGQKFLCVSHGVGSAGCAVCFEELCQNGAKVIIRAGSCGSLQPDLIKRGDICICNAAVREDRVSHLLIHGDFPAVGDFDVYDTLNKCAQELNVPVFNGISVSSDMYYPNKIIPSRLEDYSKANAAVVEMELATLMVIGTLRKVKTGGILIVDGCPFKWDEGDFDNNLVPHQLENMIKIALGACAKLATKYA

UniProt Q8II71 = biological target: UniProt Q8II71
UniProt Q8IHZ9 = biological target: UniProt Q8IHZ9
UniProt Q8IHZ9, sequence (Q8IHZ9 whole entry): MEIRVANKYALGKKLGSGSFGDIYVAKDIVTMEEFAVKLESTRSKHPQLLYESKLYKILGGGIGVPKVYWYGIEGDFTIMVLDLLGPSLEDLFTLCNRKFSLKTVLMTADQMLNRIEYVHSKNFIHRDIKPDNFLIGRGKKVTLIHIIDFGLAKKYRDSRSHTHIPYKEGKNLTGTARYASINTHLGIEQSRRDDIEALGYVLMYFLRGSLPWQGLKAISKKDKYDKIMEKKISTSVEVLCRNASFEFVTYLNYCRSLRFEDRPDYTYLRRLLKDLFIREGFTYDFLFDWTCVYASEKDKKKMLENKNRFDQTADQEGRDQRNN

UniProt P46468 = biological target: UniProt P46468
UniProt P46468, sequence (P46468 whole entry): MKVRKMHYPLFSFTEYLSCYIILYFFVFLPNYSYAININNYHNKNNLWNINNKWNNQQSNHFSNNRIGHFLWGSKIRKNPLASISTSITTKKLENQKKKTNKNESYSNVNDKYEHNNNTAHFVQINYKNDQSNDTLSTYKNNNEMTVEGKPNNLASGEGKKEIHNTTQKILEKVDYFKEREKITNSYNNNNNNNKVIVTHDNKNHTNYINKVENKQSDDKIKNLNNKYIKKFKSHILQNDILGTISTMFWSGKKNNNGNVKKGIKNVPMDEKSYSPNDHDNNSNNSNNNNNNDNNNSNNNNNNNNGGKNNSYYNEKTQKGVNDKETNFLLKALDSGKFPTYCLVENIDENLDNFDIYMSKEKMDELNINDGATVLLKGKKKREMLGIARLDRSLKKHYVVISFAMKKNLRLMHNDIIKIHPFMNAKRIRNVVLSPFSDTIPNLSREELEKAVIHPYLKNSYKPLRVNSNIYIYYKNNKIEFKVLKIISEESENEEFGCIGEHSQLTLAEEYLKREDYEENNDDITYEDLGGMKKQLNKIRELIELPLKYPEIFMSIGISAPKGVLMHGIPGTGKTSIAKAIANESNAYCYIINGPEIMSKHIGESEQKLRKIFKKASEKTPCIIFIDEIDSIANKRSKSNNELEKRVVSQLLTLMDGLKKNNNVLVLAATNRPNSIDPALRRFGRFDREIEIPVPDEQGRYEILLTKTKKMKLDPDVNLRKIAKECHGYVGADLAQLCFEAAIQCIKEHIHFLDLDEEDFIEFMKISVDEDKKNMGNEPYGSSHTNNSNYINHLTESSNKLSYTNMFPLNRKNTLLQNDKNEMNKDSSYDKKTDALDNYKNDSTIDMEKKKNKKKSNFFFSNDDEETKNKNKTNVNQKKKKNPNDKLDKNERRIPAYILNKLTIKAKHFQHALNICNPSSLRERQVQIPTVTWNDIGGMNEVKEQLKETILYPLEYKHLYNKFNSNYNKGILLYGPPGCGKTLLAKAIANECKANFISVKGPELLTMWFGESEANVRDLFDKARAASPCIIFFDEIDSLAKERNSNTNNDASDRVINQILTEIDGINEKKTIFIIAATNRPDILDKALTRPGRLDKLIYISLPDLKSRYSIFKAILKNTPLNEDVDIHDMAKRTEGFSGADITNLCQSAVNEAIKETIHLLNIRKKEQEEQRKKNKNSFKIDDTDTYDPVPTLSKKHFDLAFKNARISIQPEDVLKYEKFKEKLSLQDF

UniProt Q8II23 = biological target: UniProt Q8II23
UniProt C6KT19 = biological target: UniProt C6KT19
UniProt Q8I2W2 = biological target: UniProt Q8I2W2
UniProt Q8IBC3 = biological target: UniProt Q8IBC3
UniProt Q8I374 = biological target: UniProt Q8I374
UniProt Q8I2G2 = biological target: UniProt Q8I2G2
UniProt Q8IL08 = biological target: UniProt Q8IL08
UniProt Q8I5M2 = biological target: UniProt Q8I5M2
UniProt Q8I534 = biological target: UniProt Q8I534
UniProt O77381 = biological target: UniProt O77381
UniProt Q8I2R0 = biological target: UniProt Q8I2R0
UniProt Q8I1N8 = biological target: UniProt Q8I1N8
UniProt O77385 = biological target: UniProt O77385
UniProt Q8IKS3 = biological target: UniProt Q8IKS3
UniProt Q8IB24 = biological target: UniProt Q8IB24
UniProt Q8IHY0 = biological target: UniProt Q8IHY0

Measured: IC50
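Further: native unpurified kinases from lysate captured on beads bearing immobilized kinase inhibitors, with bead-bound kinases quantified by mass spectrometry across compound doses.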

O=c1[nH]c2ccc(Cl)cc2c(NC2CN3CCC2CC3)c1-c1nc2ccccc2[nH]1 (stereo unspecified) [CHIR-124]
0.649 µM: UniProt Q8IJR8
> 20 µM: all other assays above
